Data taken from patent US20100331361A1, “PHARMACEUTICAL COMPOSITION CONTAINING ALPHA-ADRENERGIC RECEPTOR ANTAGONIST AND AN ANTI-MUSCARINIC AGENT AND METHOD OF IMPROVING LOWER URINARY TRACT SYMPTOMS ASSOCIATED WITH PROSTATIC HYPERTROPHY” (ASTELLAS PHARMA INC., priority 2007, published 2010).
Where a name gives a salt, the structure may show the parent alone.

Columns and labels:
[1] = system: patients with prostatic hypertrophy accompanied with overactive bladder symptoms; settings: cited from earlier work
[2] = system: Male human patients with prostatic hypertrophy who still had symptoms of overactive bladder; assay: I-PSS evaluation after four weeks, Single Group vs Combination Group (Example 1); type: in vivo; design: key to Scores of voiding symptoms (2) (4) (7) / Scores of voiding symptoms (2) (4) (7), Change / Total scores of I-PSS / Scores of storage symptoms (1) (3) (5) (6) / Scores of storage symptoms (1) (3) (5) (6), Change: summed item scores, each 0-5; higher = worse symptoms
Source text: I-PSS is one of the criteria to evaluate the severity of the foregoing lower urinary tract symptoms by scoring responses to the following questions:
(2) During the last month, have you had to urinate again in less than two hours after you last urinated? (3) During the last month, have you experienced interrupted urination? (4) During the last month, have you found it difficult to postpone urination? […] (6) During the last month, have you had to strain to urinate? (7) During the last month, how many times did you typically have to get up to urinate after you went to bed until you got up in the morning?
The indices (1), (3), (5) and (6) evaluate voiding symptoms, and indices (2), (4) and (7) evaluate storage symptoms. Among these, responses to (1)-(6) are scored: 0 if the response was not at all, 1 if fewer than 1 time in 5, 2 if fewer than 1 time in 2, 3 if about 1 time in 2, 4 if more than 1 time in 2, and 5 if almost always. Additionally, the responses to (7) are respectively scored: 0, 1, 2, 3, 4, and 5 if the response was none, 1 time, 2 times, 3 times, 4 times, and 5 times or more.
Male human patients with prostatic hypertrophy who still had symptoms of overactive bladder (urgency, pollakiuria, urinary incontinence and/or nocturia, and the like.) after treatment with an α receptor antagonist for four weeks or longer were allocated for administration to two treatment groups: (1) tamsulosin hydrochloride 0.2 mg (hereinafter referred to as “Single Group”), and (2) tamsulosin hydrochloride 0.2 mg and solifenacin succinate 2.5 mg (hereinafter referred to as “Combination Group”), and then their symptoms were evaluated by I-PSS after four weeks of treatment. In Table 1 since the score of I-PSS becomes greater as the symptom worsens, greater minus change in scores indicates greater efficacy for the symptoms.

[3] = After treatment of 4 weeks, tamsulosin hydrochloride 0.2 mg alone or with solifenacin succinate 2.5 mg
[4] = Before treatment, tamsulosin hydrochloride 0.2 mg alone or with solifenacin succinate 2.5 mg
[5] = Change after 4 weeks, tamsulosin hydrochloride 0.2 mg alone or with solifenacin succinate 2.5 mg

COc1cc2nc(N3CCN(C(=O)C4COc5ccccc5O4)CC3)nc(N)c2cc1OC (centres unmarked) [doxazosin]
improvement of the storage symptom score ([1]; in vivo): 2.9 points | improvement of the total I-PSS ([1]; in vivo): 7.3 points | improvement of the voiding symptom score ([1]; in vivo): 4.5 points

CCCOC(C(=O)OC1CCN(C)CC1)(c1ccccc1)c1ccccc1 [Propiverine]
acute urinary retention (AUR) ([1]; added to doxazosin): no acute AUR was observed | effect on the urinary flow rate ([1]; added to doxazosin): did not affect

CCOc1ccccc1OCCN[C@H](C)Cc1ccc(OC)c(S(N)(=O)=O)c1 [Single, (R)-5-(2-{[2-(2-ethoxyphenoxy)ethyl]amino}propyl-2-methoxybenzene-1-sulfonamide hydrochloride]
Scores of storage symptoms (1) (3) (5) (6) [2, 3]: 5.8 | Scores of voiding symptoms (2) (4) (7) [2, 3]: 4.2 | Total scores of I-PSS [2, 3]: 10.8 | Total scores of I-PSS ([2]; Before treatment, tamsulosin hydrochloride 0.2 mg alone (Single) or with solifenacin succinate 2.5 mg (Combination)): 11.6 | Scores of storage symptoms (1) (3) (5) (6) [2, 4]: 6.5 | Scores of voiding symptoms (2) (4) (7) [2, 4]: 4.2 | Scores of storage symptoms (1) (3) (5) (6), Change [2, 5]: −0.7 | Scores of voiding symptoms (2) (4) (7), Change [2, 5]: 0.0 | Total scores of I-PSS, Change [2, 5]: −0.8
